Results reported in patent US20100010219A1, “METHOD FOR PRODUCING PYRROLIDINE COMPOUND” (JAPAN TOBACCO INC., priority 2006, published 2010).
Structures can show the parent of a compound that is named as a salt.

Target: T1, human HSD-1 (recombinant HSD-1) (Homo sapiens, UniProt P28845)
T1 construct: made in house
Experiment: HSD-1 activity inhibitory action in vitro (SPA, conversion of cortisone to cortisol)
Format: biochemical
Conditions: recombinant human HSD-1 expressed using baculovirus system; 10 nM 3H cortisone, 500 μM NADPH; room temperature 90 to 120 min; read-out: hHSD1 (IC50 (nM))

T1 sequence (P28845 whole entry): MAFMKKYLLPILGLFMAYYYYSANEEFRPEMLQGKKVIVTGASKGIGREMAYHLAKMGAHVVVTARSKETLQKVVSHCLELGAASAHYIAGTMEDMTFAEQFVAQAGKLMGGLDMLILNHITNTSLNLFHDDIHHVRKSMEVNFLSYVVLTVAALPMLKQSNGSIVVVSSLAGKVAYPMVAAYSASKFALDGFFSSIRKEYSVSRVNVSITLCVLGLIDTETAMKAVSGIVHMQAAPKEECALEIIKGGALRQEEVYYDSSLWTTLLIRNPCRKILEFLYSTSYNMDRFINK

SMILES | IC50
O=C(c1cnn(C2CCN(S(=O)(=O)C(F)(F)F)CC2)c1C1CC1)N1CC[C@@H](c2ccccc2C(F)(F)F)C1 [Example 108, 1-[5-cyclopropyl-1-(1-trifluoromethanesulfonylpiperidin-4-yl)-1H-pyrazole-4-carbonyl]-[(S)-3-(2-trifluoromethylphenyl)]pyrrolidine] | < 30 nM
O=C(c1cnn(C2CCN(S(=O)(=O)CC(F)(F)F)CC2)c1C1CC1)N1CC[C@@H](c2ccccc2C(F)(F)F)C1 [Example 109, 1-{5-cyclopropyl-1-[1-(2,2,2-trifluoroethanesulfonyl)piperidin-4-yl]-1H-pyrazole-4-carbonyl}-[(S)-3-(2-trifluoromethylphenyl)]pyrrolidine] | < 30 nM
CC(C)C(=O)NCC(=O)N1CCC(n2ncc(C(=O)N3CC[C@@H](c4ccccc4C(F)(F)F)C3)c2C2CC2)CC1 [Example 87, 1-{5-cyclopropyl-1-[1-(2-isobutyrylaminoacetyl)piperidin-4-yl]-1H-pyrazole-4-carbonyl}-[(S)-3-(2-trifluoromethylphenyl)]pyrrolidine] | < 30 nM
O=C(CC(F)(F)F)N1CCC(n2ncc(C(=O)N3CC[C@@H](c4ccccc4C(F)(F)F)C3)c2C2CC2)CC1 [Example 73, 1-{5-cyclopropyl-1-[1-(3,3,3-trifluoropropionyl)piperidin-4-yl]-1H-pyrazole-4-carbonyl}-[(S)-3-(2-trifluoromethylphenyl)]pyrrolidine] | < 30 nM
O=C(Nc1ccc(F)cc1F)N1CCC(n2ncc(C(=O)N3CCC(c4ccccc4Cl)C3)c2C2CC2)CC1 (stereo not shown) [Example 136, 3-(2-chlorophenyl)-1-{5-cyclopropyl-1-[1-(2,4-difluorophenylcarbamoyl)piperidin-4-yl]-1H-pyrazole-4-carbonyl}pyrrolidine] | < 30 nM
NCC(=O)N1CCC(n2ncc(C(=O)N3CC[C@@H](c4ccccc4C(F)(F)F)C3)c2C2CC2)CC1 [Example 77, 1-{1-[1-(2-aminoacetyl)piperidin-4-yl]-5-cyclopropyl-1H-pyrazole-4-carbonyl}-[(S)-3-(2-trifluoromethylphenyl)]pyrrolidine hydrochloride] | < 30 nM
CC1(c2c(C(=O)N3CCC(c4ccccc4CO)C3)cnn2C2CCN(c3ncccn3)CC2)CC1 (stereo not shown) [Example 180, 3-(2-hydroxymethylphenyl)-1-{5-(1-methylcyclopropyl)-1-[1-(pyrimidin-2-yl)piperidin-4-yl]-1H-pyrazole-4-carbonyl}pyrrolidine hydrochloride] | < 30 nM
CN1CCN(C(=O)N2CCC(n3ncc(C(=O)N4CC[C@@H](c5ccccc5C(F)(F)F)C4)c3C3CC3)CC2)CC1 [Example 29, 1-{5-cyclopropyl-1-[1-(4-methylpiperazine-1-carbonyl)piperidin-4-yl]-1H-pyrazole-4-carbonyl}-[(S)-3-(2-trifluoromethylphenyl)]pyrrolidine hydrochloride] | < 30 nM
NC(=O)CCC(=O)N1CCC(n2ncc(C(=O)N3CC[C@@H](c4ccccc4C(F)(F)F)C3)c2C2CC2)CC1 [Example 93, 1-{1-[1-(3-carbamoylpropionyl)piperidin-4-yl]-5-cyclopropyl-1H-pyrazole-4-carbonyl}-[(S)-3-(2-trifluoromethylphenyl)]pyrrolidine] | < 30 nM
COC(=O)c1ccc(N2CCC(n3ncc(C(=O)N4CCC(c5ccccc5C(F)(F)F)C4)c3C3CC3)CC2)nc1 (stereo not shown) [Example 178, methyl 6-(4-{5-cyclopropyl-4-[3-(2-trifluoromethylphenyl)pyrrolidine-1-carbonyl]pyrazol-1-yl}piperidin-1-yl)nicotinate] | < 30 nM
CC1(C)C(c2c(C(=O)N3CCC(c4cccnc4)C3)cnn2C2CCN(C(=O)Nc3ccccc3F)CC2)C1(C)C (stereo not shown) [Example 138, 1-{1-[1-(2-fluorophenylcarbamoyl)piperidin-4-yl]-5-(2,2,3,3-tetramethylcyclopropyl)-1H-pyrazole-4-carbonyl}-3-(pyridin-3-yl)pyrrolidine] | < 30 nM
CC(C)(CN1CCC(n2ncc(C(=O)N3CC[C@@H](c4ccccc4C(F)(F)F)C3)c2C2CC2)CC1)C(N)=O [Example 105, 1-{1-[1-(2-carbamoyl-2-methylpropyl)piperidin-4-yl]-5-cyclopropyl-1H-pyrazole-4-carbonyl}-[(S)-3-(2-trifluoromethylphenyl)]pyrrolidine hydrochloride] | < 30 nM
CC(C)(CO)C(=O)N1CCC(n2ncc(C(=O)N3CC[C@@H](c4ccccc4C(F)(F)F)C3)c2C2CC2)CC1 [Example 76, 1-{5-cyclopropyl-1-[1-(3-hydroxy-2,2-dimethylpropionyl)piperidin-4-yl]-1H-pyrazole-4-carbonyl}-[(S)-3-(2-trifluoromethylphenyl)]pyrrolidine] | < 30 nM
CS(=O)(=O)NCC(=O)N1CCC(n2ncc(C(=O)N3CC[C@@H](c4ccccc4C(F)(F)F)C3)c2C2CC2)CC1 [Example 90, 1-{5-cyclopropyl-1-[1-(2-methanesulfonylaminoacetyl)piperidin-4-yl]-1H-pyrazole-4-carbonyl}-[(S)-3-(2-trifluoromethylphenyl)]pyrrolidine] | < 30 nM
NC(=O)c1ccc(N2CCC(n3ncc(C(=O)N4CCC(c5ccccc5C(F)(F)F)C4)c3C3CC3)CC2)nc1 (stereo not shown) [Example 167, 1-{1-[1-(5-carbamoyl-pyridin-2-yl)piperidin-4-yl]-5-cyclopropyl-1H-pyrazole-4-carbonyl}-3-(2-trifluoromethylphenyl)pyrrolidine] | < 30 nM
O=C(O)c1ccc(N2CCC(n3ncc(C(=O)N4CCC(c5ccccc5C(F)(F)F)C4)c3C3CC3)CC2)cc1 (stereo not shown) [Example 113, 4-(4-{5-cyclopropyl-4-[3-(2-trifluoromethylphenyl)pyrrolidine-1-carbonyl]pyrazol-1-yl}piperidin-1-yl)benzoic acid] | < 30 nM
COC1(c2c(C(=O)N3CCC(c4ccccc4C(F)(F)F)C3)cnn2C2CCN(C(=O)Nc3ccccc3F)CC2)CC1 (stereo not shown) [Example 134, 1-{1-[1-(2-fluorophenylcarbamoyl)piperidin-4-yl]-5-(1-methoxycyclopropyl)-1H-pyrazole-4-carbonyl}-3-(2-trifluoromethylphenyl)pyrrolidine] | < 30 nM
CN(C)CCOC(=O)N1CCC(n2ncc(C(=O)N3CC[C@@H](c4ccccc4C(F)(F)F)C3)c2C2CC2)CC1 [Example 59, 1-{5-cyclopropyl-1-[1-(2-dimethylaminoethoxycarbonyl)piperidin-4-yl]-1H-pyrazole-4-carbonyl}-[(S)-3-(2-trifluoromethylphenyl)]pyrrolidine hydrochloride] | < 30 nM
O=C(c1cnn(C2CCN(c3n[nH]c(CO)n3)CC2)c1C1CC1)N1CC[C@@H](c2ccccc2C(F)(F)F)C1 [Example 119, 1-{5-cyclopropyl-1-[1-(5-hydroxymethyl-4H-[1,2,4]triazol-3-yl)piperidin-4-yl]-1H-pyrazole-4-carbonyl}-[(S)-3-(2-trifluoromethylphenyl)]pyrrolidine hydrochloride] | < 30 nM
CC(=O)N[C@H](C(=O)N1CCC(n2ncc(C(=O)N3CC[C@@H](c4ccccc4C(F)(F)F)C3)c2C2CC2)CC1)C(C)C [Example 72, 1-(1-{1-[(S)-2-acetylamino-3-methylbutyryl]piperidin-4-yl}-5-cyclopropyl-1H-pyrazole-4-carbonyl)-[(S)-3-(2-trifluoromethylphenyl)]pyrrolidine] | < 30 nM
O=C(Nc1nccs1)N1CCC(n2ncc(C(=O)N3CCC(c4ccccc4C(F)(F)F)C3)c2C2CC2)CC1 (stereo not shown) [Example 145, 1-{5-cyclopropyl-1-[1-(thiazol-2-ylcarbamoyl)piperidin-4-yl]-1H-pyrazole-4-carbonyl}-3-(2-trifluoromethylphenyl)pyrrolidine] | < 30 nM
O=C(OC1CCNCC1)N1CCC(n2ncc(C(=O)N3CC[C@@H](c4ccccc4C(F)(F)F)C3)c2C2CC2)CC1 [Example 61, 1-{5-cyclopropyl-1-[1-(piperidin-4-yl-oxycarbonyl)piperidin-4-yl]-1H-pyrazole-4-carbonyl}-[(S)-3-(2-trifluoromethylphenyl)]pyrrolidine hydrochloride] | < 30 nM
CC(=O)Nc1ccc(N2CCC(n3ncc(C(=O)N4CCC(c5ccccc5C(F)(F)F)C4)c3C3CC3)CC2)cc1 (stereo not shown) [Example 182, 1-{1-[1-(4-acetylaminophenyl)piperidin-4-yl]-5-cyclopropyl-1H-pyrazole-4-carbonyl}-3-(2-trifluoromethylphenyl)pyrrolidine] | < 30 nM
O=C(NC1(CO)CC1)N1CCC(n2ncc(C(=O)N3CC[C@@H](c4ccccc4C(F)(F)F)C3)c2C2CC2)CC1 [Example 7, 1-{5-cyclopropyl-1-[1-(1-hydroxymethylcyclopropylcarbamoyl)piperidin-4-yl]-1H-pyrazole-4-carbonyl}-[(S)-3-(2-trifluoromethylphenyl)]pyrrolidine] | < 30 nM
O=C(NC1(CO)CCCC1)N1CCC(n2ncc(C(=O)N3CC[C@@H](c4ccccc4C(F)(F)F)C3)c2C2CC2)CC1 [Example 54, 1-{5-cyclopropyl-1-[1-(1-hydroxymethylcyclopentylcarbamoyl)piperidin-4-yl]-1H-pyrazole-4-carbonyl}-[(S)-3-(2-trifluoromethylphenyl)]pyrrolidine] | < 30 nM
CC(=O)NC1CCN(C(=O)N2CCC(n3ncc(C(=O)N4CC[C@@H](c5ccccc5C(F)(F)F)C4)c3C3CC3)CC2)C1 (stereo partly drawn) [Example 40, 1-{1-[1-(3-acetylaminopyrrolidine-1-carbonyl)piperidin-4-yl]-5-cyclopropyl-1H-pyrazole-4-carbonyl}-[(S)-3-(2-trifluoromethylphenyl)]pyrrolidine] | < 30 nM
CC(=O)OCCC1(c2ccc(F)cc2)CCN(C(=O)c2cnn(C3CCN(c4ncccn4)CC3)c2C2(C)CC2)C1 (stereo not shown) [Example 176, 3-(2-acetoxyethyl)-3-(4-fluorophenyl)-1-{5-(1-methylcyclopropyl)-1-[1-(pyrimidin-2-yl)piperidin-4-yl]-1H-pyrazole-4-carbonyl}pyrrolidine hydrochloride] | < 30 nM
O=C(Nc1ccccc1F)N1CCC(n2ncc(C(=O)N3CCC(c4cccnc4)C3)c2C2CC2)CC1 (stereo not shown) [Example 3, 1-{5-cyclopropyl-1-[1-(2-fluorophenylcarbamoyl)piperidin-4-yl]-1H-pyrazole-4-carbonyl}-3-(pyridin-3-yl)pyrrolidine] | < 30 nM
